Laboratory results reported in BigSolDB 2.1.

[NH3+]O.[NH3+]O.[O-]n1nnnc1-c1nnnn1[O-]
solubility (mole fraction)
Conditions	298.15 K	303.15 K	308.15 K	313.15 K	318.15 K	323.15 K	328.15 K	333.15 K
in acetic acid	7.44e-05	8.86e-05	0.000105	0.000125	0.000146	0.000171	0.000199	0.000231
in ethanol	1.35e-05	1.54e-05	1.76e-05	2.01e-05	2.27e-05	2.56e-05	2.88e-05	3.24e-05
in formic acid	0.00144	0.00163	0.00183	0.00205	0.00229	0.00254	0.00283	0.00313
in water	0.000128	0.000156	0.00019	0.000228	0.000274	0.000325	0.000385	0.000456
